What was measured:
mouse sperm [1] = test: Mouse artificial insemination with treated sperm, sex of blastocyst embryos; format: in vivo; settings: sperm treated with R848 3 nM, Glu medium pH 7.8, 60 minutes, 5/6 embryos
Procedure: Sperm were collected from the cauda epididymis of 12-week-old mature male mice. The mouse sperm were cultured in modified HTF medium (Glu medium, pH 7.8, supplemented with R848 (3 nM)) (60 minutes, 37° C.). Sperm cultured in the same manner as in Experiment 7 were subjected to artificial insemination, and the resulting blastocyst embryos were collected. As a result, 83.3% (5/6) of the embryos were female embryos.

pig sperm = test: Pig artificial insemination with treated semen, sex of offspring; format: in vivo; settings: semen treated in modified HTF medium pH 7.8, R848 3 nM, 60 minutes, 37° C.
Procedure: Pig semen diluted to 5 billion/100 mL with Hiro Swine B solution was centrifuged (500 G, 5 minutes, room temperature), and then the supernatant was discarded. The pig sperm were suspended in the same amount of modified HTF medium (pH 7.8, supplemented with R848 (3 nM)), and then cultured in a thermostat (60 minutes, 37° C.). Thereafter, centrifugation (500 G, 5 minutes, room temperature) was carried out, and the supernatant was discarded. Subsequently, the sperm were suspended in a diluent for artificial insemination, and then subjected to artificial insemination.

bovine sperm [2] = test: Acrosome retention rate of bovine sperm after culture and swim-up; format: cell-based; settings: freeze-thawed bovine sperm, Glu medium pH 7.7, R848 3 nM, 30 minutes room temperature, swim-up from 1% PVP 15 minutes; FIG. 7
Procedure: Freeze-thawed bovine sperm, thawed and washed in modified HTF medium, were cultured in modified HTF medium (Glu medium, pH 7.7, supplemented with R848 (3 nM)) (30 minutes, room temperature). Centrifugation was carried out, and then the supernatant was discarded. Subsequently, the sperm were resuspended in modified HTF medium supplemented with 1% PVP and R848 (3 nM), and then placed under PVP-free modified HTF medium to form a lower layer. Fifteen minutes later, 1.5 mL of the upper layer and 0.5 mL of the lower layer were collected. Each layer was subjected to acrosome staining, and the acrosome retention rate was determined.

mouse sperm [3] = test: Mouse in vitro fertilization with treated sperm, sex of blastocyst embryos by real-time PCR; format: cell-based; settings: sperm treated with R848 3 nM
Procedure: Sperm were collected from the cauda epididymis of 12-week-old mature male mice. The mouse sperm were cultured in modified HTF medium (Glu medium, pH 7.8, supplemented with R848 (3 nM)) (60 minutes, 37° C.). In vitro fertilization was performed using sperm cultured in the same manner as in Experiment 7. Five days later, sperm that reached blastocyst embryos were collected, and the ratio between X-sperm and Y-sperm was calculated by real-time PCR.

bovine sperm [4] = test: X-sperm/Y-sperm ratio of bovine lower-layer sperm by fluorescence in situ hybridization; format: cell-based; settings: freeze-thawed bovine sperm, Glu medium pH 7.7, R848 3 nM, swim-up, FISH, FIG. 8
bovine sperm [5] = test: Bovine in vitro fertilization with upper-layer sperm, sex identification of blastocyst embryos by real-time PCR; format: cell-based; settings: modified HTF medium pH 7.4, R848 3 nM, 30 minutes room temperature, FIG. 9
Procedure: Freeze-thawed bovine sperm, thawed and washed in modified HTF medium, were cultured in modified HTF medium (pH 7.4, supplemented with R848 (3 nM)) (30 minutes, room temperature). Centrifugation was carried out, and then the supernatant was discarded. Subsequently, the sperm were resuspended in modified HTF medium supplemented with 1% PVP and R848 (3 nM), and then placed under PVP-free modified HTF medium to form a lower layer. Fifteen minutes later, 1.5 mL of the upper layer was collected, washed, and then subjected to in vitro fertilization. Thereafter, the resulting blastocyst embryos were subjected to sex identification by real-time PCR.

[6] = blastocyst embryos after five days, Glu medium pH 7.8, 22 individuals

## CCOCc1nc2c(N)nc3ccccc3c2n1CC(C)(C)O [R848, resiquimod]
Mouse sperm [1]
  female embryos among blastocyst embryos: 83.3%
Pig sperm
  Female ratio: 64%
Pig sperm; 36 individuals
  Female (number of individuals): 23
  Male (number of individuals): 13
Bovine sperm [2]
  acrosome retention rate of the sperm in the upper layer: 70%
Mouse sperm [3]; [6]
  Female (number of embryos): 17
  Male (number of embryos): 5
Mouse sperm [3]; blastocyst embryos, Glu medium pH 7.8
  Female ratio: 77%
Bovine sperm [4]
  Y-sperm among the sperm in the lower layer: 84%
Bovine sperm [5]
  XX embryos (female embryos) among blastocyst embryos: 91%
